Experimental data from US20060009425A1, “Oral formulations of paricalcitol” (priority 2004, published 2006).

Assays:
[1] = human, in vivo, 24 weeks
Description: (§1) Additionally, safety was assessed by the incidence of adverse events, the change from baseline in chemistry, hematology and urinalysis laboratory variables, the change from baseline in subject vital signs, and progressive changes in renal function observed via changes in eGFR.
All randomized subjects who received at least 1 dose of study drug were used in safety analyses. […] This comparison was performed using a Fisher's exact test. Secondary safety analyses were performed comparing changes/percent changes from baseline between the paricalcitol and placebo treatment groups using a one-way ANOVA with treatment group as the factor for the following variables: hematology, complete chemistry, and urinalysis variables; 24-hour urine collections, eGFR, urinary calcium/creatinine ratio, cardiovascular markers, and vital signs. Secondary safety analyses also consisted of an analysis of “treatment-emergent” adverse events (i.e., adverse events with an onset date on or after the date the first dose of study drug was taken). Adverse events were summarized by body system and COSTART term according to the COSTART V adverse event-coding dictionary. Comparisons of the percentage of subjects experiencing an adverse event between the paricalcitol and placebo treatment groups were performed using a Fisher's exact test.

[2] = system: serum parathyroid hormone (PTH) levels; experiment: Phase 3 placebo-controlled once daily study, iPTH reduction (Example 8); assay type: in vivo, human
Excerpt: Methodology: This was a Phase 3, prospective, randomized, placebo-controlled, double-blind, 24-week Treatment Phase, multi-center study in CKD (Stages 3 and 4) subjects with elevated PTH levels (≧150 pg/mL). Subjects were randomized in an equal ratio (1:1) to 1 of 2 treatment groups: Paricalcitol capsule (Group 1) and placebo (Group 2). Potential subjects underwent procedures to determine their baseline intact PTH (iPTH), calcium, and phosphorus levels for eligibility to receive treatment.
During the Treatment Phase, subjects were to self-administer study drug once daily for a total of 24 weeks. The initial dose was 1 or 2 mcg (depending on baseline iPTH levels). Procedures to be performed during the Treatment Phase included vital signs, chemistry and hematology, urinary pyridinoline, urinary deoxypyridinoline, serum bone-specific alkaline phosphatase, serum osteocalcin, urinalysis, spot urine for calcium/creatinine ratio, and recording of adverse events and concurrent medications. Serum iPTH, calcium, phosphorus, and albumin were measured every 2 weeks. Dose adjustments were to be made according to these chemistry results for iPTH, calcium, and phosphorus. Doses may have been increased in 1 mcg increments every 4 weeks. Dose reductions were to occur according to a protocol-specified algorithm. However, dosing could have been adjusted any time if, in the judgment of the Investigator, a risk to subject safety existed.
Efficacy: The primary efficacy endpoint was the achievement of 2 consecutive >30% decreases from baseline iPTH levels.
The secondary efficacy analyses include change and percent change from baseline analyses in iPTH and change from baseline analyses in biochemical bone activity markers.
The Intent-To-Treat population (Full Analysis Set) was defined as all randomized subjects with a baseline iPTH and at least 2 on-treatment iPTH measurements. This population was used in the primary efficacy analysis.

[3] = system: biochemical bone activity markers; experiment: Combined Phase 3 studies, biochemical bone activity markers; assay type: in vivo, human
Excerpt: Serum bone-specific alkaline phosphate and serum osteocalcin are considered more sensitive bone markers to evaluate degree of bone remodeling than urinary bone marker. […] These subjects received treatment with the oral formulations of the present invention or a placebo. The bone markers examined in these subjects were serum osteocalcin, serum bone-specific alkaline phosphatase, urinary pyridinoline, and deoxypyridinoline. If more than 1 biochemical bone activity marker measurement existed for a subject on a particular day, the higher measurement was considered to be that subject's biochemical bone activity marker measurement for that day. […] The Final Visit measurement was defined as the last biochemical bone activity marker measurement following the first dose of study drug.
The Week 11 Visit measurement was defined as the biochemical bone activity marker measurement on the day closest to the Week 11 scheduled visit, for which the possible measurements to choose from were those collected within 64 and 77 days following the first dose of study drug.
Changes from baseline to Week 11 Visit and to Final Visit in biochemical bone activity markers were compared between oral paricalcitol and placebo using an ANOVA with treatment as the factor on the combined Phase 3 all treated subject population (Table F). Also, the changes from baseline to Week 11 Visit and to Final Visit were compared between oral paricalcitol and placebo using an ANCOVA with baseline as the second factor on the combined Phase 3 all treated subject population (Table G).
In this example, paricalcitol capsules were evaluated in 3 double-blind, placebo-controlled multicenter studies in CKD stage 3-4 subjects with 2° HPT; 2 of these studies were conducted with TIW dosing and 1 was done with QD dosing. Subjects with eGFR (MDRD formula) 15-60 ml/min/1.73 m^2, iPTH ≧150 pg/mL, serum Ca 8.0-10.0 mg/dL and PO4≦5.2 mg/dL were randomized 1:1 and treated with paricalcitol capsule or placebo for 24 weeks. A total of 145 subjects used TIW regimen (paricalcitol: 72; placebo: 73) and 75 subjects (paricalcitol: 35; placebo: 40) used QD regimen. After the initial doses, doses were titrated based on serum Ca, P and iPTH results that were measured every 2 weeks; dose increases occurred once every 4 weeks and decreases every 2 weeks. Dosing administrations are shown below in Table 18.

[4] = Phase 3 once daily study, safety (Example 8)
Description: as §1
All randomized subjects who received at least 1 dose of study drug were used in safety analyses.
Secondary safety analyses also consisted of an analysis of “treatment-emergent” adverse events (i.e., adverse events with an onset date on or after the date the first dose of study drug was taken). Adverse events were summarized by body system and COSTART term according to the COSTART V adverse event-coding dictionary. Comparisons of the percentage of subjects experiencing an adverse event between the Paricalcitol and placebo treatment groups were performed using a Fisher's exact test.

[5] = Phase 3 studies combined, all treated subjects
[6] = Phase 3 studies combined, all treated subjects, listed as Oral Paricalcitol
[7] = Phase 3 studies combined, all treated subjects, listed as oral paricalcitol
[8] = Phase 3 studies, TIW Treatment Regimen

SMILES: C[C@H](/C=C/[C@H](C)C(C)(C)O)[C@H]1CC[C@H]2/C(=C/C=C3C[C@@H](O)C[C@H](O)C3)CCC[C@]12C [Paricalcitol, 19-nor-1α,3β,25-trihydroxy-9,10-secoergosta-5(Z); 7(E),22(E)-triene]
- adverse event incidence: viral infection [1]: 10%
- subjects with 4 consecutive ≧30% decreases from baseline in iPTH ([2]; 23/33, exploratory analysis): 70%
- subjects with 2 consecutive ≧30% decreases from baseline in iPTH ([2]; 30/33, once daily, 24 weeks, CKD Stages 3 and 4): 91%
- maximum decrease from baseline in iPTH ([2]; observed at Week 23): −52.4%
- 30% mean reduction in iPTH occurred by ([2]; once daily): ≤ 7 Week
- mean change from baseline in iPTH at the Final Visit ([2]; once daily, 24 weeks): -46.9 pg/mL
- mean change from baseline in iPTH at the Last On-Treatment Visit ([2]; once daily, 24 weeks): -130.8 pg/mL
- percent decrease in iPTH at the Final Visit ([2]; once daily, 24 weeks): 15.2%
- percent decrease in iPTH at the Last On-Treatment Visit ([2]; once daily, 24 weeks): 50.0%
- Serum Osteocalcin, Change from Baseline (SE) to Week 11 [3, 5]: −3.94 (2.431) ng/mL
- Urinary Deoxypyridinoline, Change from Baseline (SE) to Final [3, 5]: −0.0058 (0.00514) nmol/mg Creat
- Urinary Pyridinoline, Change from Baseline (SE) to Week 11 [3, 5]: −5.21 (1.938) nmol/mmol Creat
- Serum Bone-Specific Alkaline Phosphatase, Change from Baseline (SE) to Final [3, 6]: −7.890 (0.7596) mcg/L
- Serum Bone-Specific Alkaline Phosphatase, Change from Baseline (SE) to Week 11 [3, 6]: −5.024 (0.6279) mcg/L
- Serum Osteocalcin, Change from Baseline (SE) to Final [3, 6]: −21.64 (2.706) ng/mL
- Urinary Deoxypyridinoline, Change from Baseline (SE) to Week 11 [3, 6]: −0.0155 (0.00433) nmol/mg Creat
- Urinary Pyridinoline, Change from Baseline (SE) to Final [3, 6]: −3.61 (1.896) nmol/mmol Creat
- Serum Bone-Specific Alkaline Phosphatase, Change from Baseline (SE) to Final [3, 7]: -7.89 µg/L
- Serum Bone-Specific Alkaline Phosphatase, Change from Baseline (SE) to Week 11 [3, 7]: -5.024 µg/L
- Serum Osteocalcin, Change from Baseline (SE) to Final [3, 7]: -21.64 ng/mL
- Urinary Deoxypyridinoline, Change from Baseline (SE) to Week 11 [3, 7]: −0.0155 nmol/mg Creat
- Urinary Pyridinoline, Change from Baseline (SE) to Final [3, 7]: −3.61 nmol/mmol Creat
- Serum Bone-Specific Alkaline Phosphatase, Change from Baseline (SE) to Final [3, 8]: −8.043 (0.9033) mcg/L
- Serum Bone-Specific Alkaline Phosphatase, Change from Baseline (SE) to Week 11 [3, 8]: −4.869 (0.7835) mcg/L
- Serum Osteocalcin, Change from Baseline (SE) to Final [3, 8]: −18.96 (2.944) ng/mL
- Serum Osteocalcin, Change from Baseline (SE) to Week 11 [3, 8]: −5.53 (2.720) ng/mL
- Urinary Deoxypyridinoline, Change from Baseline (SE) to Final [3, 8]: −0.0130 (0.00357) nmol/mg Creat
- Urinary Deoxypyridinoline, Change from Baseline (SE) to Week 11 [3, 8]: −0.0129 (0.00426) nmol/mg Creat
- Urinary Pyridinoline, Change from Baseline (SE) to Final [3, 8]: −5.47 (1.789) nmol/mmol Creat
- Urinary Pyridinoline, Change from Baseline (SE) to Week 11 [3, 8]: −5.19 (2.213) nmol/mmol Creat
- Bone Spec. Alk Phos, Mean Change from Baseline ([3]; QD Regimen, N = 33 (Table 20)): −7.6 (1.40) mcg/L
- Serum Osteocalcin, Mean Change from Baseline ([3]; QD Regimen, N = 33 (Table 20)): −27.1 (5.54) ng/mL
- Serum Osteocalcin, Mean Change from Baseline ([3]; TIW Regimen, N = 67 (Table 20)): −19.0 (2.94) ng/mL
- Bone Spec. Alk Phos, Mean Change from Baseline ([3]; TIW Regimen, N = 68 (Table 20)): −8.0 (0.90) mcg/L
- safety and tolerability ([4]; CKD (Stages 3 and 4) subjects): safe and well tolerated
- mean calcium values, range over scheduled visits ([4]; Treatment Phase): 9.24 to 9.54 mg/dL
- subjects reporting serious adverse events ([4]; Treatment and Follow-Up Phases): 7 subjects
- deaths ([4]; hepatic encephalopathy, considered not related to study drug): 1 subject
- adverse event incidence: abdominal pain ([4]; in vivo): 9%
- adverse event incidence: accidental injury ([4]; in vivo): 17%
- adverse event incidence: allergic reaction ([4]; in vivo): 9%
- adverse event incidence: cough increased ([4]; in vivo): 9%
- adverse event incidence: diarrhea ([4]; in vivo): 11%
- adverse event incidence: edema ([4]; in vivo): 11%
- adverse event incidence: nausea ([4]; in vivo): 9%
- adverse event incidence: pharyngitis ([4]; in vivo): 14%
- adverse event incidence: rash ([4]; in vivo): 11%
- adverse event incidence: vomiting ([4]; in vivo): 11%
- phosphorus, mean change from baseline to Final Visit ([4]; in vivo): -0.13 mg/dL
- serum calcium, mean change from baseline to Last On-Treatment Visit ([4]; in vivo): 0.21 mg/dL
- subjects terminated prematurely due to adverse events ([4]; in vivo): 4 subjects
- subjects who developed clinically meaningful hypercalcemia (at least 2 consecutive calcium values >10.5 mg/dL) ([4]; in vivo): 0/35
- adverse events considered not related to study drug administration ([4]; once daily, 24 weeks): 67%
- adverse events mild or moderate in severity ([4]; once daily, 24 weeks): 93%
- subjects with treatment-emergent adverse events ([4]; once daily, 24 weeks): 91%
